In patent publication US9139810B2, “Method for culturing microorganisms to incorporate a substitue element” (priority 2010, dated 2015):

How the values were obtained:
E. coli K12 NBRC3301 [1] = assay type: cell-based, Escherichia coli
E. coli K-12 (NBRC3993) = conditions: additive (mg/mL as printed in the row) to S(−)fa medium, 37° C.
E. coli K12NBRC3301 = test: S starvation, adaptation culture with dSi and elementary analysis of cells by ICP-MS (Example 16); assay type: cell-based, Escherichia coli
B. subtilis NBRC13719 = assay type: cell-based, Bacillus subtilis; conditions: Glc(1) + Yex (0.5); day 5
E. coli K12 NBRC 3301 = test: Growth and Si content of acetone-treated cells by ICP/MS (Example 4); assay type: cell-based, Escherichia coli; conditions: lac 1 + compound 5
[2] = test system: B. subtilis Marburg NBRC13719; test: as above; assay type: cell-based, Bacillus subtilis; conditions: for D 1 OD 660 nm: 22 hours; for D1ACW: acetone-treated dried cells
E. coli K12 NBRC3301 [3] = conditions: C(αC)Y medium, FIG. 1
S. cerevisiae NBRC0268 = test: Growth and Si content of acetone-treated cells by ICP/MS (Example 4); assay type: cell-based, Saccharomyces cerevisiae; conditions: lac 3 + compound 5
E. coli K12 NBRC3301 [4] = test: Growth and adaptation culture in C(αC+X)Y medium with mmSi (Example 2, FIG. 2); assay type: cell-based, Escherichia coli
Protocol: A C source-limited medium (C(αC) medium) was prepared by adding a limited amount of lactate Na as C source (denoted as “αC”) to a C source-deleted C (−) medium. Escherichia coli growth was then examined using a C(αC+X) medium prepared by adding a methyl group-containing organic silicon compound mmSi (methyltrimethoxysilane (see Tables 2 and 3 for abbreviations for the compound)) to the C(αC) medium as a C source substitute compound; that is, an X-containing compound. Moreover, the effects resulting from adaptation culture were examined (specifically, after completion of the 1st (T1) culture, 2nd subculture (T2) was started in a medium of the same composition).
C source substitute compound: X: mmSi (methyltrimethoxysilane). Culture conditions: 100 mL/Erlenmeyer flask; 33° C.; and 130 rpm. At the time of completion of the 1st culture of, a portion of the culture fluid was pipetted off. Cells were washed by centrifugation and then seeded in a medium of the same composition. The OD value at the initiation of the subculture was adjusted to be close to the initial OD value of the 1st culture generation.
In a manner similar to that in Example 1, E. coli K12 starter cells were grown in a GY medium, cells were washed, and then subjected to C source starvation culture. The resulting cells were seeded as starter cells in a medium. On day 2, the 1st culture (denoted as “T1d2” in FIG. 2) cells were washed and then the cells were seeded as starter cells in a medium of the same composition for 2nd subculture for adaptation. On day 2 of the 2nd subculture (T2d2), the growth was measured.

[5] = lac 2 mg/mL + Y 0.5 mg/mL, FIG. 2
[6] = S(dSi)fa medium, d 3, mean of 2 to 3 flasks

Question: What does the source list for `O=BOB(O)OB(O)OB=O` [BB, Borax or sodium borate]?
Answer: colony count and OD value compared with medium with only limited C source (E. coli K12 NBRC3301 [1]; C source substitute compound): increased; OD 660 nm (d5) (E. coli K12 NBRC3301 [1]; Lac (2) + Y, X (10), day 5): 1.59

Question: For `N[C@@H](CS)C(=O)O` [L-cysteine], which “Amount of E. coli K12NBRC3993 growth OD660 × 10 d (cultured for 1 day)” value (E. coli K-12 (NBRC3993)) is on record?
Answer: 0.240

Question: Which “OD 660 nm” value (E. coli K12NBRC3301; test 2, S(−)fa + Na2SO4 (0.2 mg/mL), d3) does the source give for `O=S(=O)([O-])[O-].[Na+].[Na+]` [Sodium sulfate, Sodium sulfate, anhydrous, reference compound] here?
Answer: 200 (OD 4.2)

Question: What about the “Amount of E. coli K12NBRC3993 growth OD660 × 10 d (cultured for 1 day)” value (E. coli K-12 (NBRC3993)) of the same compound?
Answer: 0.144

Question: How did the “OD 660 nm (d5)” value (B. subtilis NBRC13719) turn out when `CCO[Si](C)(C)OCC` [emSi, Diethoxydimethylsilane] was run?
Answer: 6.69

Question: And the “D 1 OD 660 nm” value (E. coli K12 NBRC 3301; 22 hours)?
Answer: 1.79

Question: And the D1ACW (E. coli K12 NBRC 3301; acetone-treated dried cells)?
Answer: 203 mg/100 mL

Question: What about the “D 1 OD 660 nm” value ([2]; lac 1 + compound 5) of the same compound?
Answer: 2.48

Question: What about the D1ACW ([2]; lac 1 + compound 5) of the same compound?
Answer: 289 mg/100 mL

Question: Which “OD with ethanol equimolar to the ethyl group in emSi, compared with emSi” value (E. coli K12 NBRC3301 [3]) does the source give for `CCO` [ethanol] here?
Answer: lower than that of emSi

Question: What does the source list for `CO[Si](C)(OC)OC` [mmSi, Methyltrimethoxysilane]?
Answer: D 1 OD 660 nm (S. cerevisiae NBRC0268; 22 hours): 3.14; D1ACW (S. cerevisiae NBRC0268; acetone-treated dried cells): 274 mg/100 mL; amount of growth in 2nd subculture versus 1st subculture (E. coli K12 NBRC3301 [4]; adaptation culture, T2d2 vs T1d2): higher than that of the 1st subculture; OD value compared with control (only limited amount of C source) (E. coli K12 NBRC3301 [4]; [5]): increased; dose dependence of increases in OD value (E. coli K12 NBRC3301 [4]; [5]): in a dose-dependent manner; growth on the compound alone (E. coli K12 NBRC3301 [4]; no limited C source (rightmost in FIG. 2)): did not grow; D 1 OD 660 nm ([2]; lac 3 + compound 5): 2; D1ACW ([2]; lac 3 + compound 5): 309 mg/100 mL

Question: With Sodium disilicate [dSi] as the compound, how does the “OD 660 nm at end of 4th subculture of adaptation culture” value (E. coli K12NBRC3301; [6]) read?
Answer: 1.93

Question: What about the “OD 660 nm at end of 5th subculture of adaptation culture” value (E. coli K12NBRC3301; [6]) of the same compound?
Answer: 3.22

Question: And the “OD 660 nm at end of 3rd subculture of adaptation culture” value (E. coli K12NBRC3301; S(dSi)fa medium, d 7, mean of 2 to 3 flasks)?
Answer: 1.91

Question: And the “OD 660 nm at end of 2nd subculture of adaptation culture” value (E. coli K12NBRC3301; S(dSi)fa medium, d 9, mean of 2 to 3 flasks)?
Answer: 2.00

Question: What about the “OD 660 nm at end of 1st subculture of adaptation culture” value (E. coli K12NBRC3301; S(dSi)fa medium, d 13, mean of 2 to 3 flasks) of the same compound?
Answer: 2.13

Question: And the “OD 660 nm” value (E. coli K12NBRC3301; test 3, S(−)fa + Na2SO4 (0.02) + dSi (0.4 mg/mL), d3)?
Answer: 170 (OD 6.0)

Question: And the “OD 660 nm” value (E. coli K12NBRC3301; test 4, S(−)fa + dSi (0.4 mg/mL), no S source, d4)?
Answer: 190 (OD 3.0)
